Values joined by “and” are separate entries in the source; they are usually repeats but may differ in a detail not shown here. Equal values may be shown once.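 48-hour exposure; five concentrations; linearly interpolated endpoints. GI50: concentration for 50% inhibition of growth.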 Active and inactive are the calls of the source. Cut-off read from the data, not from the text of the source: active = GI50 up to about 1.1 µM and inactive = higher.
Columns and labels:
Experiment in all cases: NCI-60 cell line screen, 48 h
[1] = system: SN12C
[2] = system: OVCAR-8
[3] = system: MOLT-4
[4] = system: U-251
[5] = system: Hs-578T
[6] = system: MDA-MB-435
[7] = system: RXF 393
[8] = system: SK-MEL-2
[9] = system: CAKI-1
[10] = system: UO-31
[11] = system: OVCAR-4
[12] = system: OVCAR-5
[13] = system: M14
[14] = system: KM12
[15] = system: SK-OV-3
[16] = system: COLO 205
[17] = system: ACHN
[18] = system: MDA-N
[19] = system: SR

Row | Structure (SMILES) | GI50 [1] | GI50 [2] | GI50 [3] | GI50 [4] | GI50 [5] | GI50 [6] | GI50 [7] | GI50 [8] | GI50 [9] | GI50 [10] | GI50 [11] | GI50 [12] | GI50 [13] | GI50 [14] | GI50 [15] | GI50 [16] | GI50 [17] | GI50 [18] | GI50 [19]
1 | O=S(=O)(Nc1nccs1)c1ccc([As](=O)(O)O)cc1 | > 100 µM (inactive) | > 100 µM (inactive) | > 100 µM (inactive) | > 100 µM (inactive) | > 100 µM (inactive) | > 100 µM (inactive) | > 100 µM (inactive) | > 100 µM (inactive) | > 100 µM (inactive) | > 100 µM (inactive) | > 100 µM (inactive) | > 100 µM (inactive) | > 100 µM (inactive) | > 100 µM (inactive) | > 100 µM (inactive) | > 100 µM (inactive) | > 100 µM (inactive) | – | –
2 | Cc1ccc(/N=N/c2c(O)c3ccccc3[nH]c2=O)c(S(=O)(=O)N(C)C)c1 | > 100 µM (inactive) | > 100 µM (inactive) | – | > 100 µM (inactive) | > 100 µM (inactive) | > 100 µM (inactive) | > 100 µM (inactive) | > 100 µM (inactive) | > 100 µM (inactive) | > 100 µM (inactive) | > 100 µM (inactive) | > 100 µM (inactive) | > 100 µM (inactive) | > 100 µM (inactive) | > 100 µM (inactive) | > 100 µM (inactive) | > 100 µM (inactive) | > 100 µM (inactive) | –
3 | CC(=O)NC(C)(C)C1CCC(C)CC1 (centres undefined) | > 100 µM (inactive) | > 100 µM (inactive) | > 100 µM (inactive) | > 100 µM (inactive) | 48.9 µM (inactive) | > 100 µM (inactive) | > 100 µM (inactive) | – | > 100 µM (inactive) | > 100 µM (inactive) | > 100 µM (inactive) | > 100 µM (inactive) | > 100 µM (inactive) | > 100 µM (inactive) | > 100 µM (inactive) | > 100 µM (inactive) | > 100 µM (inactive) | > 100 µM (inactive) | > 100 µM (inactive)
4 | N=C(N)C1CN(CCc2c[nH]c3ccccc23)C(=O)NC1=O (centres undefined) | > 100 µM (inactive) | > 100 µM (inactive) | > 100 µM (inactive) | > 100 µM (inactive) | – | > 100 µM (inactive) | – | – | – | > 100 µM (inactive) | > 100 µM (inactive) | > 100 µM (inactive) | > 100 µM (inactive) | – | > 100 µM (inactive) | > 100 µM (inactive) | > 100 µM (inactive) | > 100 µM (inactive) | > 100 µM (inactive)
5 | Cn1nc(-c2ccccc2)c(C(=O)/C=C/c2ccccc2)c(N2CCCCC2)c1=O | > 100 µM (inactive) | 42 µM (inactive) | 2.36 µM (inactive) | > 100 µM (inactive) | – | – | 12.8 µM (inactive) | – | 22.2 µM (inactive) | 17.5 µM (inactive) | – | – | 47.6 µM (inactive) | – | > 100 µM (inactive) | 9.98 µM (inactive) | 46.1 µM (inactive) | – | –
6 | [O-][S+](Nc1ccccc1)c1ccc(N2CCOCC2)cc1 (centres undefined) | > 100 µM (inactive) | > 100 µM (inactive) | 44.7 µM (inactive) | > 100 µM (inactive) | > 100 µM (inactive) | 32.7 µM (inactive) | – | > 100 µM (inactive) | – | 10.8 µM (inactive) | > 100 µM (inactive) | > 10 µM (inactive) | > 100 µM (inactive) | 23.6 µM (inactive) | – | 59.6 µM (inactive) | 65.8 µM (inactive) | – | 60.3 µM (inactive)
7 | CCCC(=O)NC(NC1CCCCC1)(C(=O)OCC)C(F)(F)F (centres undefined) | > 100 µM (inactive) | > 100 µM (inactive) | > 100 µM (inactive) | > 100 µM (inactive) | > 100 µM (inactive) | > 100 µM (inactive) | > 100 µM (inactive) | > 100 µM (inactive) | – | > 100 µM (inactive) | > 100 µM (inactive) | > 100 µM (inactive) | > 100 µM (inactive) | > 100 µM (inactive) | > 100 µM (inactive) | – | > 100 µM (inactive) | > 100 µM (inactive) | > 100 µM (inactive)
8 | S=C(N/N=C/c1ccccn1)Nc1ccc(Cl)cc1 | 0.32 µM (active) | 0.0333 µM (active) | < 0.01 µM (active) | 0.0528 µM (active) | 1.85 µM (inactive) | 0.373 µM (active) | – | 2.14 µM (inactive) | < 0.0125 µM (active) | 0.0514 µM (active) | 0.689 µM (active) | 0.191 µM (active) | 0.0347 µM (active) | 0.175 µM (active) | 0.0378 µM (active) | < 0.0175 µM (active) | 0.0455 µM (active) | 0.933 µM (active) | < 0.0218 µM (active)
9 | N#CC(c1ccccc1)N(CCCCCCN(C(=O)c1ccccc1)C(C#N)c1ccccc1)C(=O)c1ccccc1 (centres undefined) | 44.9 µM (inactive) | 30.1 µM (inactive) | 34.4 µM (inactive) | 52.6 µM (inactive) | 26.1 µM (inactive) | 32.8 µM (inactive) | 52.1 µM (inactive) | 23.6 µM (inactive) | 32.1 µM (inactive) | 18 µM (inactive) | 35 µM (inactive) | > 100 µM (inactive) | 41.2 µM (inactive) | 38.5 µM (inactive) | 41.4 µM (inactive) | 18.1 µM (inactive) | 38.4 µM (inactive) | 45.1 µM (inactive) | –
10 | CC(=O)OC1COC(Nc2nc(NCc3ccccc3)n(C)c(=O)c2N=O)C(OC(C)=O)C1OC(C)=O (centres undefined) | > 10 µM (inactive) | > 10 µM (inactive) | > 10 µM (inactive) | > 10 µM (inactive) | > 10 µM (inactive) | > 10 µM (inactive) | > 10 µM (inactive) | > 10 µM (inactive) | > 10 µM (inactive) | – | > 10 µM (inactive) | > 10 µM (inactive) | > 10 µM (inactive) | > 10 µM (inactive) | > 10 µM (inactive) | > 10 µM (inactive) | > 10 µM (inactive) | > 10 µM (inactive) | –
11 | COc1ccc(N[C@H](CSc2ccc(C)cc2)c2ccc(F)cc2)cc1 | > 100 µM (inactive) | > 100 µM (inactive) | 3.23 µM (inactive) | > 100 µM (inactive) | – | > 100 µM (inactive) | 68.5 µM (inactive) | > 100 µM (inactive) | > 100 µM (inactive) | > 100 µM (inactive) | 67.5 µM (inactive) | > 100 µM (inactive) | > 100 µM (inactive) | > 100 µM (inactive) | > 100 µM (inactive) | > 100 µM (inactive) | > 100 µM (inactive) | 71.1 µM (inactive) | 25.2 µM (inactive)
12 | Cc1ccc(S(=O)(=O)NC(=O)Nc2cc(Cl)c(S(N)(=O)=O)cc2S(N)(=O)=O)cc1 | > 100 µM (inactive) | > 100 µM (inactive) | > 100 µM (inactive) | > 100 µM (inactive) | > 100 µM (inactive) | > 100 µM (inactive) | > 100 µM (inactive) | > 100 µM (inactive) | > 100 µM (inactive) | > 100 µM (inactive) | > 100 µM (inactive) | > 100 µM (inactive) | > 100 µM (inactive) | > 100 µM (inactive) | > 100 µM (inactive) | > 100 µM (inactive) | – | > 100 µM (inactive) | –
13 | CCOc1ccc2nc3nc(O)nc(C)c3c(NC(C)(CO)CO)c2c1 | > 100 µM (inactive) | > 100 µM (inactive) | > 100 µM (inactive) | > 100 µM (inactive) | > 100 µM (inactive) | > 100 µM (inactive) | > 100 µM (inactive) | > 100 µM (inactive) | > 100 µM (inactive) | > 100 µM (inactive) | > 100 µM (inactive) | > 100 µM (inactive) | > 100 µM (inactive) | > 100 µM (inactive) | > 100 µM (inactive) | > 100 µM (inactive) | > 100 µM (inactive) | > 100 µM (inactive) | –
14 | CC1OC(OC2C(OC(=O)[C@]34CCC(C)(C)C[C@H]3C3=CC[C@@H]5[C@@]6(C)CC[C@H](OC7OC(C(=O)O)C(O)C(O)C7O)C(C)(C)[C@@H]6CC[C@@]5(C)[C@]3(C)CC4)OCC(O)C2O)C(O)C(O)C1OC1OCC(O)C(O)C1O (some centres undefined) | 22.1 µM (inactive) and 19.4 µM (inactive) | > 100 µM (inactive) | – | 39.3 µM (inactive) and 75.2 µM (inactive) | – | 18.3 µM (inactive) and 18.9 µM (inactive) | > 100 µM (inactive) and 70.1 µM (inactive) | 19.4 µM (inactive) and 33.1 µM (inactive) | 30 µM (inactive) and 40.4 µM (inactive) | 16.8 µM (inactive) and 22.1 µM (inactive) | 54 µM (inactive) and 53.8 µM (inactive) | 48.2 µM (inactive) and 31 µM (inactive) | 17.5 µM (inactive) and 19.2 µM (inactive) | – | > 100 µM (inactive) and 82.8 µM (inactive) | 16.7 µM (inactive) and 17.3 µM (inactive) | – | 17.9 µM (inactive) and 18.2 µM (inactive) | –
15 | N#Cc1c2ccc([N+](=O)[O-])cc2c(=O)n2c1[nH]c1ccc(C(F)(F)F)cc12 | > 42.4 µM (inactive) | 33.1 µM (inactive) | 14.5 µM (inactive) | 26.4 µM (inactive) | 24.4 µM (inactive) | 54 µM (inactive) | – | > 64.7 µM (inactive) | 60.8 µM (inactive) | 17.5 µM (inactive) | 24.8 µM (inactive) | 14.3 µM (inactive) | 24.5 µM (inactive) | 24.8 µM (inactive) | 41.9 µM (inactive) | 16.9 µM (inactive) | 48 µM (inactive) | > 64.9 µM (inactive) | 4.07 µM (inactive)
16 | O=C(O)c1cc(C(=O)C(=O)c2cc(C(=O)O)c(O)c3ccccc23)c2ccccc2c1O | > 100 µM (inactive) | > 100 µM (inactive) | – | > 100 µM (inactive) | > 100 µM (inactive) | > 100 µM (inactive) | > 100 µM (inactive) | > 100 µM (inactive) | > 100 µM (inactive) | > 100 µM (inactive) | > 100 µM (inactive) | > 100 µM (inactive) | > 100 µM (inactive) | > 100 µM (inactive) | > 100 µM (inactive) | > 100 µM (inactive) | > 100 µM (inactive) | > 100 µM (inactive) | –
